Patent US20140309291A1, “Compositions and Methods for Increasing Stress Resilience” (The Children's Hospital of Philadelphia, priority 2011, published 2014)

Experiments:
[1] = social defeat paradigm (defeat latency); assay type: in vivo, rats; settings: SL (short latency, vulnerable) animals; drug given 1 hour prior to social defeat stress on 3 days following 7 days of defeat; p=0.0726 (FIG. 2A)
Description: The social defeat paradigm used in these studies was modified from the resident-intruder model (Miczek, K. A. (1979) Psychopharmacology (Berl) 60:253-259). Rats were randomly assigned to either a social defeat or control group for a consecutive 7 days (Bhatnagar et al. (2006) J. Neuroendocrinol., 18:13-24; Buwalda et al. (1999) J. Neuroendocrinol., 11:513-520). During each episode of social stress, a rat was placed into the home cage territory of an unfamiliar Long-Evans resident previously screened for high aggression (Bhatnagar et al. (2006) J. Neuroendocrinol., 18:13-24; Buwalda et al. (1999) J. Neuroendocrinol., 11:513-520). […] After defeat, a wire mesh enclosure was placed in the cage to prevent physical contact between the resident and intruder but allowing visual, auditory, and olfactory contact for the remainder of the 30-minute defeat session. Latency to assume a submissive posture (defeat) was recorded and averaged over the seven daily defeat exposures. […] Rats were returned to their home cage after each session, and body weight was recorded on days 1 and 8. […]
Following 7 days of defeat, the SL and LL groups were divided into two separate treatment groups receiving either vehicle or FTY720, 1 hour prior to social defeat stress on the following 3 days. Defeat latencies were recorded. […]

[2] = social interaction test of anxiety after social defeat stress; assay type: in vivo, rats
Procedure: Animals were exposed to 7 days of social defeat stress. During these 7 days of defeat stress the average latency to defeat was observed. Based on this latency to defeat, animals were either classified as short latency (SL, defeat <300 seconds) or long latency (LL, defeat >300 seconds).
Following 7 days of defeat, the SL and LL groups were divided into two separate treatment groups receiving either vehicle or FTY720, 1 hour prior to social defeat stress on the following 3 days. Defeat latencies were recorded. Additionally, 48 hours following the end of social defeat stress, animals were tested in the social interaction test of anxiety.

S1P3 receptor = S1P3 receptor (Homo sapiens, UniProt Q99500); settings: multiple Sph receptors, including the S1P3 receptor; cited from earlier work
Sequence of S1P3 receptor (Q99500 whole entry): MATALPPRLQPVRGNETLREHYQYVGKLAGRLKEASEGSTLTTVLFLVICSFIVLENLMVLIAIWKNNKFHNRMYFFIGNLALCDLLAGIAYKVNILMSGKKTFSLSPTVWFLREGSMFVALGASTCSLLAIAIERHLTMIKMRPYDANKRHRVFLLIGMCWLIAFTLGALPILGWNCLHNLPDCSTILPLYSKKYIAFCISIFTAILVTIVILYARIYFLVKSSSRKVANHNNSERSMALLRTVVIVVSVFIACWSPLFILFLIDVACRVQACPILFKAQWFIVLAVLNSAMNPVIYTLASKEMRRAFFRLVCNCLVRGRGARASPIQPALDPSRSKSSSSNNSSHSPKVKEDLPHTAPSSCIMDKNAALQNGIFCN

CCCCCCCCc1ccc(CCC(N)(CO)CO)cc1 [FTY720]
defeat latency [1]: tended to increase defeat latency of SL animals to the level of LL animals | social interaction time ([2]; SL animals, tested 48 hours following the end of social defeat stress, p=0.0049 (FIG. 2B)): prevented the decreased interaction time | effect of the drug in resilient and control animals ([2]; resilient LL rats or control rats): no effects | agonist activity at Sph receptors (S1P3 receptor): potent agonist
